Read-outs that look alike come from different tables or passages of the source.
Experiments:
[1] = test system: HCV replicon genotype 1a; test: HCV replicon assay, genotype 1a (cell ELISA for NS3/4A); format: cell-based, hepatitis C virus
Procedure, shortened: (§1)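 Stable neomycin-resistant replicon cell lines (genotype 1a or 1b) incubated 96 h with compound dilution series without G418. After washing and lysis, replication measured by cell ELISA for replicon-encoded NS3/4A protein; IC50 as % of DMSO control via four-parameter fit.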

[2] = test system: HCV replicon genotype 1b; test: HCV replicon assay, genotype 1b (cell ELISA for NS3/4A); format: cell-based, hepatitis C virus
Procedure, shortened: as §1

[3] = Hepatitis C virus, 96 h, read-out: 1a IC50 (nM), HCV genotype 1a replicon cells, 96 hours incubation, NS3/4A ELISA readout, % of DMSO control
[4] = Hepatitis C virus, 96 h, read-out: 1b IC50 (nM), HCV genotype 1b replicon cells, 96 hours incubation, NS3/4A ELISA readout, % of DMSO control

SMILES	IC50 ([1]; read-out: 1a IC50, HCV genotype 1a replicon cells, 96 hours incubation, NS3/4A ELISA readout, % of DMSO control) [nM]	IC50 ([2]; read-out: 1b IC50, HCV genotype 1b replicon cells, 96 hours incubation, NS3/4A ELISA readout, % of DMSO control) [nM]	IC50 [1, 3] [nM]	IC50 [2, 4] [nM]
CNC(=O)c1c(-c2ccc(F)cc2)oc2cc(N(C)S(C)(=O)=O)c([C@@H]3CCCN(C(=O)c4nc5ccccc5n4C)C3)cc12 (single isomer, unassigned) [Example 24, 2-(4-fluorophenyl)-N-methyl-5-(1-(1-methyl-1H-benzo[d]imidazole-2-carbonyl)piperidin-3-yl)-6-(N-methylmethylsulfonamido)benzofuran-3-carboxamide]	32.7	40.5		
CNC(=O)c1c(-c2ccc(F)cc2)oc2cc(N(C)S(C)(=O)=O)c([C@@H]3CCCN(S(=O)(=O)c4ccc5ncsc5c4)C3)cc12 [Example 112, 5-[(3S)-1-(1,3-benzothiazol-6-ylsulfonyl)piperidin-3-yl]-2-(4-fluorophenyl)-N-methyl-6-[methyl(methylsulfonyl)amino]-1-benzofuran-3-carboxamide]			25	6.79
CNC(=O)c1c(-c2ccc(F)cc2)oc2cc(N(C)S(C)(=O)=O)c([C@@H]3CCCN(C(=O)Cc4ccc(F)cn4)C3)cc12 (stereo in doubt) [Example 70, 2-(4-fluorophenyl)-5-{1-[(5-fluoropyridin-2-yl)acetyl]piperidin-3-yl}-N-methyl-6-[methyl(methylsulfonyl)amino]-1-benzofuran-3-carboxamide]			207	67.9
CNC(=O)c1c(-c2ccc(F)cc2)oc2cc(N(C)S(C)(=O)=O)c([C@@H]3CCCN(C(=O)c4ccc(F)cc4)C3)cc12 (single isomer, unassigned) [Example 19, 5-(1-(4-fluorobenzoyl)piperidin-3-yl)-2-(4-fluorophenyl)-N-methyl-6-(N-methylmethylsulfonamido)benzofuran-3-carboxamide]			43.8	50.8
CNC(=O)c1c(-c2ccc(F)cc2)oc2cc(N(C)S(C)(=O)=O)c([C@@H]3CCCN(S(=O)(=O)c4cnc5n4CCCCC5)C3)cc12 [Example 125, 2-(4-fluorophenyl)-N-methyl-6-[methyl(methylsulfonyl)amino]-5-[(3S)-1-(6,7,8,9-tetrahydro-5H-imidazo[1,2-a]azepin-3-ylsulfonyl)piperidin-3-yl]-1-benzofuran-3-carboxamide]			172	67.6
CNC(=O)c1c(-c2ccc(F)cc2)oc2cc(N(C)S(C)(=O)=O)c([C@H]3CCCN(C(=O)c4nc5ccccc5[nH]4)C3)cc12 [Example 87, 5-[(3R)-1-(1H-benzimidazol-2-ylcarbonyl)piperidin-3-yl]-2-(4-fluorophenyl)-N-methyl-6-[methyl(methylsulfonyl)amino]-1-benzofuran-3-carboxamide]			267	112
CNC(=O)c1c(-c2ccc(F)cc2)oc2cc(N(C)S(C)(=O)=O)c([C@H]3CCCN(S(=O)(=O)Cc4ccccc4F)C3)cc12 [Example 81, 5-{(3R)-1-[(2-fluorobenzyl)sulfonyl]piperidin-3-yl}-2-(4-fluorophenyl)-N-methyl-6-[methyl(methylsulfonyl)amino]-1-benzofuran-3-carboxamide]			14.1	11.6
CNC(=O)c1c(-c2ccc(F)cc2)oc2cc(N(C)S(C)(=O)=O)c([C@@H]3CCCN(S(=O)(=O)c4ccccc4)C3)cc12 [Example 117, 2-(4-fluorophenyl)-N-methyl-6-[methyl(methylsulfonyl)amino]-5-[(3S)-1-(phenylsulfonyl)piperidin-3-yl]-1-benzofuran-3-carboxamide]			32.3	9.37

Source: US9549921B2, “Heterocyclic compounds and methods of use thereof for the treatment of hepatitis C” (priority 2014, dated 2017)
